The target of assay [1] is BCL6-NCOR2(SMRT) corepressor protein-protein interaction (Homo sapiens (Human), UniProt P41182). The assay is described as follows: NanoBRET cell assay in transfected HEK293T cells. Format: cell-based. Conditions: HEK293T cells, 6 hr; for IC50: read-out: NanoBRET cell pIC50 (converted). (Bioluminescence resonance energy transfer reports proximity on the nanometre scale.)
Assay [2] deals with human BCL6 BTB domain (Trx-6xHis-BCL6) (Homo sapiens (Human), UniProt P41182). The assay is described as follows: HTRF in vitro assay (BCL6 BTB domain / BCOR-AF633 peptide). Conditions: for IC50: read-out: HTRF pIC50 (converted). Format: binding.
Method: The % inhibition at each concentration was calculated by normalising FRET ratio to the appropriate high (DMSO with all reagents) and low (DMSO without BCL6) controls.
The mark [3] stands for this setting: further generated data (Table 2b).
Setting [4] is: further generated data (Table 1b), 1 nM Trx-6xHis-BCL6, 0.5 nM anti-6xHis-Terbium cryptate.

The structures appear in SMILES notation. Like-named read-outs stand apart in the source and are kept apart here.

On to `Cn1c(=O)cc(NC(C)(C)c2ncc(C3CC3)cn2)c2cc(Nc3ccnc(Cl)c3Cl)ccc21` [Example 6j, 4-((2-(5-cyclopropylpyrimidin-2-yl)propan-2-yl)amino)-6-((2,3-dichloropyridin-4-yl)amino)-1-methylquinolin-2(1H)-one], for which the IC50 in assay [1] (setting [3]) is 1200 nM. Besides, in assay [2] (setting [4]), the “HTRF pIC50” value was 6.84.
For `Cn1c(=O)cc(NC2(c3ncccn3)CCOC2)c2cc(Nc3ccnc(Cl)c3C#N)ccc21` (centres unmarked) [Example 19i, 2-chloro-4-((1-methyl-2-oxo-4-((3-(pyrimidin-2-yl)tetrahydrofuran-3-yl)amino)-1,2-dihydroquinolin-6-yl)amino)nicotinonitrile] the same measures were 9330 nM and 6.38.
For `CCOC(=O)c1cc(Nc2ccc3c(c2)c(NC(C)c2ncccn2)cc(=O)n3C)n2nccc2n1` (centres unmarked) [Example 10q, ethyl 7-((1-methyl-2-oxo-4-((1-(pyrimidin-2-yl)ethyl)amino)-1,2-dihydroquinolin-6-yl)amino)pyrazolo[1,5-a]pyrimidine-5-carboxylate] the same measures were 2690 nM and 6.44.
Take `C[C@@H](Nc1cc(=O)n(C)c2ccc(Nc3cc(C(=O)N4CCC4)nc(Cl)c3C#N)cc12)C1CC1` [Example 8c, (R)-6-(azetidine-1-carbonyl)-2-chloro-4-((4-((1-cyclopropylethyl)amino)-1-methyl-2-oxo-1,2-dihydroquinolin-6-yl)amino)nicotinonitrile]: the IC50 in assay [1] (setting [3]) is 501 nM. For the same compound, the “HTRF pIC50” value in assay [2] (setting [4]) was 7.02.
In the case of `CC(Nc1cc(=O)n(C)c2ccc(Nc3cc(C(=O)N4CC(C(F)(F)F)C4)nc(Cl)c3C#N)cc12)c1ncc(C2CC2)cn1` (centres unmarked) [Example 8f, 2-chloro-4-((4-((1-(5-cyclopropylpyrimidin-2-yl)ethyl)amino)-1-methyl-2-oxo-1,2-dihydroquinolin-6-yl)amino)-6-(3-(trifluoromethyl)azetidine-1-carbonyl)nicotinonitrile], the IC50 in assay [1] (setting [3]) was 5250 nM. In addition, the “HTRF pIC50” value in assay [2] (setting [4]) came to 6.99.
Consider `COC1CCC1Nc1cc(=O)n(C)c2ccc(Nc3ccnc(Cl)c3C#N)cc12` (racemic) [Example 22a, rac-2-chloro-4-((4-(((1R,2S)-2-methoxycyclobutyl)amino)-1-methyl-2-oxo-1,2-dihydroquinolin-6-yl)amino)nicotinonitrile or rac-2-chloro-4-((4-(((1R,2R)-2-methoxycyclobutyl)amino)-1-methyl-2-oxo-1,2-dihydroquinolin-6-yl)amino)nicotinonitrile], for which the IC50 is 2340 nM in assay [1] (setting [3]) and 251 nM in assay [2] (setting [4]).
Turning to `CC(Nc1nc(=O)n(C)c2ccc(Nc3ccnc(Cl)c3Cl)cc12)c1ncccn1` (centres unmarked) [Example 6c, 6-((2,3-dichloropyridin-4-yl)amino)-1-methyl-4-((1-(pyrimidin-2-yl)ethyl)amino)quinazolin-2(1H)-one], the IC50 in assay [1] (setting [3]) is 5500 nM. Also, the “HTRF pIC50” value in assay [2] (setting [4]) is 6.57.
For `CC(Nc1cc(=O)n(C)c2ccc(Nc3nc(NCc4cccnc4)ncc3Cl)cc12)c1ncccn1` (centres unmarked) [Example 17f, 6-((5-chloro-2-((pyridin-3-ylmethyl)amino)pyrimidin-4-yl)amino)-1-methyl-4((1-(pyrimidin-2-yl)ethyl)amino)quinolin-2(1H)-one:formic acid (1:1)] the same measures were 3240 nM and 6.32.
As to `CC(Nc1cc(=O)n(C)c2ccc(Nc3nc(N4CC5(CCOCC5)C4)ncc3Cl)cc12)c1ncccn1` (centres unmarked) [Example 17h, 6-((5-chloro-2-(7-oxa-2-azaspiro[3.5]nonan-2-yl)pyrimidin-4-yl)amino)-1-methyl-4((1-(pyrimidin-2-yl)ethyl)amino)quinolin-2(1H)-one:formic acid (1:1)], in assay [1] (setting [3]), the IC50 was 4170 nM. For the same compound, the “HTRF pIC50” value in assay [2] (setting [4]) turned out to be 6.20.
As to `CC(C)(Nc1cc(=O)n(CC2CCCCC2)c2ccc(Nc3ccnc(Cl)c3C#N)cc12)c1ncccn1` [Example 10o, 2-chloro-4-((1-(cyclohexylmethyl)-2-oxo-4-((2-(pyrimidin-2-yl)propan-2-yl)amino)-1,2-dihydroquinolin-6-yl)amino)nicotinonitrile], the IC50 in assay [1] (setting [3]) is 2290 nM. Also, in assay [2] (setting [4]), the “HTRF pIC50” value is given as 6.50.
As for `CC(Nc1nc(=O)n(C)c2ccc(Nc3nc(N4CCC(F)(F)CC4)ncc3Cl)cc12)c1ncccn1` (centres unmarked) [Example 12a, 6-((5-Chloro-2-(4,4-difluoropiperidin-1-yl)pyrimidin-4-yl)amino)-1-methyl-4-((1-(pyrimidin-2-yl)ethyl)amino)quinazolin-2(1H)-one], the figures for the IC50 in assay [1] (setting [3]) and in assay [2] (setting [4]) were 2340 nM and 191 nM, respectively.
Turning to `C[C@@H]1CN(c2cnc(C(C)(C)Nc3cc(=O)n(C)c4ccc(Nc5ccnc(Cl)c5C#N)cc34)nc2)C[C@H](C)O1` [Example 7a, 2-Chloro-4-((4-((2-(5-((2R,6S)-2,6-dimethylmorpholino)pyrimidin-2-yl)propan-2-yl)amino)-1-methyl-2-oxo-1,2-dihydroquinolin-6-yl)amino)nicotinonitrile], the IC50 in assay [1] (setting [3]) is 347 nM. Also, the “HTRF pIC50” value in assay [2] (setting [4]) is recorded as 7.91.
As for `CC(Nc1cc(=O)n(C)c2ccc(Nc3nc(N4CC(C)(C#N)C4)ncc3Cl)cc12)c1ncccn1` (centres unmarked) [Example 17j, 1-(5-chloro-4-((1-methyl-2-oxo-4-((11-(pyrimidin-2-yl)ethyl)amino)-1,2-dihydroquinoline-6-yl)amino)pyrimidin-2-yl)-3-methylazetidine-3-carbonitrile], the IC50 in assay [1] (setting [3]) was 4900 nM. Besides, in assay [2] (setting [4]), the “HTRF pIC50” value was found to be 6.18.
For the compound `CC(Nc1cc(=O)n(CC2CC2)c2ccc(Nc3ccnc(Cl)c3Cl)cc12)c1ncccn1` (centres unmarked) [Example 6g, 1-(cyclopropylmethyl)-6-[(2,3-dichloro-4-pyridyl)amino]-4-(1-pyrimidin-2-ylethylamino)quinolin-2-one], the IC50 in assay [1] (setting [3]) was 7410 nM. Also, the “HTRF pIC50” value in assay [2] (setting [4]) came to 6.25.
With `C[C@@H](Nc1nc(=O)n(C)c2ccc(Nc3ccnc(Cl)c3C#N)cc12)C1CC1` [Example 10m, (R)-2-chloro-4-((4-((1-cyclopropylethyl)amino)-1-methyl-2-oxo-1,2-dihydroquinazolin-6-yl)amino)nicotinonitrile], the IC50 in assay [1] (setting [3]) is 2750 nM. Further, the “HTRF pIC50” value in assay [2] (setting [4]) is reported as 6.66.
As for `CCC(C)(Nc1cc(=O)n(C)c2ccc(Nc3ccnc(Cl)c3C#N)cc12)c1ncccn1` (centres unmarked) [Example 24c, 2-chloro-4-((1-methyl-2-oxo-4-((2-(pyrimidin-2-yl)butan-2-yl)amino)-1,2-dihydroquinolin-6-yl)amino)nicotinonitrile], the IC50 in assay [1] (setting [3]) is 5130 nM. In assay [2] (setting [4]), the “HTRF pIC50” value amounted to 6.45.
Regarding `CC(Nc1cc(=O)n(CC2CCOCC2)c2ccc(Nc3ccnc(Cl)c3C#N)cc12)c1ncccn1` (centres unmarked) [Example 1d, 2-chloro-4-[[2-oxo-4-(1-pyrimidin-2-ylethylamino)-1-(tetrahydropyran-4-ylmethyl)-6-quinolyl]amino]pyridine-3-carbonitrile], the “NanoBRET cell pIC50” value in assay [1] (setting [3]) worked out at 5.45. Further, the IC50 in assay [1] (initially generated data (Table 2a)) is 3550 nM. Moreover, the “HTRF pIC50” value is listed as 6.58 in assay [2] (setting [4]) and 6.58 in assay [2] (initially generated data (Table 1a), 10 nM Trx-6xHis-BCL6, 1 nM anti-6xHis-Terbium cryptate).
For the compound `CC(Nc1cc(=O)n(C)c2ccc(Nc3nc(N4CCC(F)(F)CC4)ncc3Cl)cc12)c1ncccn1` (centres unmarked) [Example 17i, 6-((5-chloro-2-(4,4-difluoropiperidin-1-yl)pyrimidin-4-yl)amino)-1-methyl-4-((1-(pyrimidin-2-yl)ethyl)amino)quinolin-2(1H)-one], in assay [1] (setting [3]), the IC50 was 2820 nM. Moreover, in assay [2] (setting [4]), the “HTRF pIC50” value came to 6.20.
For the compound `CN(C)C(=O)C1CCN(c2ncc(Cl)c(Nc3ccc4c(c3)c(NC(C)(C)c3ncccn3)cc(=O)n4C)n2)CC1` [Example 16a, 1-(5-chloro-4-((1-methyl-2-oxo-4-((2-(pyrimidin-2-yl)propan-2-yl)amino)-1,2-dihydroquinolin-6-yl)amino)pyrimidin-2-yl)-N,N-dimethylpiperidine-4-carboxamide], the IC50 in assay [1] (setting [3]) is 2630 nM. Further, the “HTRF pIC50” value in assay [2] (setting [4]) is recorded as 6.58.
Consider `COC[C@@H]1CCCN1C(=O)c1cc(Nc2ccc3c(c2)c(N[C@H](C)C2CC2)cc(=O)n3C)c(Cl)cn1` [Example 15a, 6-((5-Chloro-2-((S)-2-(methoxymethyl)pyrrolidine-1-carbonyl)pyridin-4-yl)amino)-4-(((R)-1-cyclopropylethyl)amino)-1-methylquinolin-2(1H)-one], for which the IC50 in assay [1] (setting [3]) is 2000 nM. Also, in assay [2] (setting [4]), the “HTRF pIC50” value is recorded as 6.59.
`CC(Nc1cc(=O)n(C)c2ccc(Nc3ccnc(C#N)c3Cl)cc12)c1ncccn1` (centres unmarked) [Example 19h, 3-chloro-4-((1-methyl-2-oxo-4-((1-(pyrimidin-2-yl)ethyl)amino)-1,2-dihydroquinolin-6-yl)amino)picolinonitrile]: the IC50 in assay [1] (setting [3]) was 15100 nM. In addition, in assay [2] (setting [4]), the “HTRF pIC50” value is listed as 6.17.
As to `CC(Nc1cc(=O)n(C)c2ccc(Nc3ccnc(Cl)c3C#N)cc12)c1cc2ccccc2cn1` (centres unmarked) [Example 24e, 2-chloro-4-((4-((1-(isoquinolin-3-yl)ethyl)amino)-1-methyl-2-oxo-1,2-dihydroquinolin-6-yl)amino)nicotinonitrile], the IC50 in assay [1] (setting [3]) was 3470 nM. Also, in assay [2] (setting [4]), the “HTRF pIC50” value was determined as 6.38.
Consider `CC(Nc1cc(=O)n(C)c2ccc(Nc3ccnc(Cl)c3C#N)cc12)c1ncc(Br)cn1` (centres unmarked) [Example 10j, 4-((4-((1-(5-bromopyrimidin-2-yl)ethyl)amino)-1-methyl-2-oxo-1,2-dihydroquinolin-6-yl)amino)-2-chloronicotinonitrile], for which the IC50 in assay [1] (setting [3]) was 1230 nM. Further, the “HTRF pIC50” value in assay [2] (setting [4]) worked out at 6.92.
In the case of `CNC(=O)c1cc(Nc2ccc3c(c2)c(NC(C)c2ncccn2)cc(=O)n3C)c(C#N)c(C)n1` (centres unmarked) [Example 18b, 5-cyano-N, 6-dimethyl-4-((1-methyl-2-oxo-4-((1-(pyrimidin-2-yl)ethyl)amino)-1,2-dihydroquinolin-6-yl)amino)picolinamide], the IC50 in assay [1] (setting [3]) was 7080 nM. Further, the “HTRF pIC50” value in assay [2] (setting [4]) was found to be 6.40.
